This note sets out measurements from US7968522B2, “Treatment and prophylaxis of sepsis and septic shock” (Polytechnic Institute of NYU, priority 2003, dated 2011).

The assay relates to RAW 264.7 cells. Kind of assay: LPS-induced NO production (nitrite, Griess reaction) in mouse macrophages. In kind it is cell-based. The settings on record: for effect on LPS-induced NO production: varying concentrations, added 1.5 h before, after or simultaneously with LPS. As to the method: As nitric oxide production is a useful marker of macrophage response to bacterial LPS, the in vitro model system is a valuable tool for examining the modulating effects of sophorolipids on LPS-induced macrophage responses under controlled conditions. Mouse macrophages (RAW 264.7, ATCC) were incubated in the presence of LPS (Salmonella typhimurium, Sigma #6511) (50 ng/ml, an optimal dose for inducing NO production), and varying concentrations of sophorolipids (SL, natural mixture), sophorolipid diethyl ester (E), and corresponding sophorolipid diacetate (K). Sophorolipids were added 1.5 hours before, 1.5 hours after, or simultaneously with LPS. Aliquots of culture supernatants were collected after 5 days and NO content was determined by measuring nitrite (modified Griess reaction). Briefly, triplicate 50 μl aliquots of the culture supernatant were mixed in wells of a 96-well microtiter plate with 100 μl of Griess reagent containing a 1:1 (vol/vol) mixture of 1% (wt/vol) sulfanilamide in 30% acetic acid and 0.5% (wt/vol) of N-(-1-Naphthyl)ethylenediamine dihydrochloride in 60% acetic acid. Chromophore generated by the reaction with nitrite was detected spectrophotometrically (550 nm) using a microtiterplate reader (ELx 800, BioTek Instruments, Winooski, Vt.). The concentration of nitrite was calculated by using calibration with known concentrations of NaNO2.
This in vitro model system made it possible to examine in detail the effects of sophorolipids on LPS induced NO production as a marker of the acute inflammatory pathway that leads to septic shock in vivo. NO production appeared to depend on the sequence of addition of sophorolipids relative to LPS. The in vitro effects were most pronounced when sophorolipids were introduced either before or simultaneously with LPS.
(Nitrite, measured by Griess reagent, commonly stands in for NO production.)

The structures appear in SMILES notation. “Also recorded” adds a separate entry of the source.

`CCOC(=O)CCCCCCC/C=C\CCCCCCC(C)O[C@@H]1O[C@H](CO)[C@@H](O)[C@H](O)[C@H]1O[C@@H]1O[C@H](CO)[C@@H](O)[C@H](O)[C@H]1O` (relative stereo) [E, Ethyl 17-L-[(2′-O-β-D-glucopyranosyl-β-D-glucopyranosyl)-oxy]-cis-9-octadecenoate]: the “effect on LPS-induced NO production” value is “inhibited LPS-induced NO production in a dose- and time-dependent manner”. For the same compound, the “rating of the potency of inhibitory activities on LPS induced NO production” value (RAW 264.7 cells, LPS 50 ng/ml) was “E>SL>K; also recorded: least inhibitory and the most variable effects”. Moreover, for the setting “at 25 ng/ml, LPS 50 ng/ml, RAW 264.7 cells, supernatants after 5 days”, the “inhibition of LPS-induced NO production (plateau / maximum)” value is on record as 60-65%.

`CCOC(=O)CCCCCCC/C=C\CCCCCCC(C)O[C@@H]1O[C@H](COC(C)=O)[C@@H](O)[C@H](O)[C@H]1O[C@@H]1O[C@H](COC(C)=O)[C@@H](O)[C@H](O)[C@H]1O` (relative stereo) [K, Ethyl 17-L[(2′-O-β-D glucopyranosyl-β-D-glucopyranosyl)-oxy]-cis-9-octadecenoate 6′,6″-diacetate]: the “effect on LPS-induced NO production” value was “inhibited LPS-induced NO production in a dose- and time-dependent manner”. Moreover, the “rating of the potency of inhibitory activities on LPS induced NO production” value (RAW 264.7 cells, LPS 50 ng/ml) was “E>SL>K”.
